Assay results reported in patent US8106055B2, “Substituted amide compounds” (Gruenenthal GmbH, priority 2007, dated 2012).

Experiments:
[1] = biological target: T1, human μ opiate receptor (Homo sapiens, UniProt P35372); experiment: Affinity for the human μ opiate receptor ([3H]-naloxone displacement, CHO-K1 receptor membrane preparation, SPA); format: binding; details: test concentration of 1 μM
T1 construct: purchased PerkinElmer Life Sciences, Zaventem, Belgium RB-HOM; host or cells: CHO-K1 cells (membrane preparation)
How it was run: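 Displacement of 1 nmol/l [3H]-naloxone measured by SPA counting after 90 min at room temperature, using human μ receptor CHO-K1 membrane preparation in Tris-HCl buffer with 0.06% BSA. Test substances at 1 μmol/l give % inhibition; dilution series yield IC50, then Ki (Cheng-Prusoff); non-specific binding with 100 μmol/l naloxone.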

[2] = biological target: T2, bradykinin 1 receptor (B1R) of the rat (Rattus norvegicus, UniProt P97583); experiment: Functional investigation on the rat bradykinin 1 receptor (B1R), Ca2+ FLIPR assay in CHO K1 rB1R cells; format: cell-based; details: B1R antagonism rat; test substance 10 μM; Ca2+ FLIPR, CHO K1 rB1R cells
T2 construct: expressed in transfected cells; host or cells: CHO K1 cells
T2 sequence (P97583 1-337): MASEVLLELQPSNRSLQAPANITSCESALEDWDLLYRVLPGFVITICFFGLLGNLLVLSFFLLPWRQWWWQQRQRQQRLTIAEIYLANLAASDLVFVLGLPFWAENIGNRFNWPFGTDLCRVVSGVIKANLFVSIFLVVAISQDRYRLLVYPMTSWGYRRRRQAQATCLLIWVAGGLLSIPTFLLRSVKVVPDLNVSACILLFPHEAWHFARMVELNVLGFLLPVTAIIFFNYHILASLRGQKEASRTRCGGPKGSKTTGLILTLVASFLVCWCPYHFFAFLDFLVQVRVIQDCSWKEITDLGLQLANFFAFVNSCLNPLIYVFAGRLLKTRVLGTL
How it was run: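 Fluo-4 Ca2+ readout, peak fluorescence. Stable CHO K1 transfectants; compound pre-incubated 10-20 min, then EC80 agonist—Lys-Des-Arg9-BK for hB1R, Des-Arg9-BK for rB1R. % inhibition vs maximal inhibition; IC50 from multiple concentrations, duplicate/triplicate, ≥2 independent runs.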

T1 sequence (P35372 whole entry): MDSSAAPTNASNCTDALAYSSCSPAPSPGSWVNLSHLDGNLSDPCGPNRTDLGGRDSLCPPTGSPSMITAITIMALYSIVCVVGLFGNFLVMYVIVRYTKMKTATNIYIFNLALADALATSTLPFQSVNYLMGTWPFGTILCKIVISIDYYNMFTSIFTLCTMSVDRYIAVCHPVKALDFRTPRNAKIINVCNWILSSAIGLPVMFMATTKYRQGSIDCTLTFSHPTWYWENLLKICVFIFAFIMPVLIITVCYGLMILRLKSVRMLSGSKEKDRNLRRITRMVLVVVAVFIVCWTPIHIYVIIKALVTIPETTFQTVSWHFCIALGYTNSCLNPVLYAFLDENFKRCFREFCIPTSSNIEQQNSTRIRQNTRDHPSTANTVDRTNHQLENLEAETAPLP

Row | SMILES | μ (binding on the μ opioid receptor, % inhibition) [1] [%] | B1R Ant. r [10 μM] % Inhibition [2] [%]
1 | COc1ccc(S(=O)(=O)N2CCCCC2COCC(=O)NC2CCC(C(c3ccc(F)cc3)N(C)C)CC2)cc1 (stereo not drawn) [Example 450] | 50 | 52
2 | CN(C)C(CCc1ccccc1)C1CCC(CNC(=O)COC2CCCCC2N(C)S(=O)(=O)c2ccc(Cl)c(Cl)c2)CC1 (stereo not drawn) [Example 451] | 48 | 11
3 | Cc1ccc(S(=O)(=O)N(C)CCOCC(=O)NCC2CCC(C(CCc3ccccc3)N(C)C)CC2)cc1 (stereo not drawn) [Example 452] | 46 | 18
4 | COc1cc(C)c(S(=O)(=O)N2CCC(OCC(=O)NC3CCC(C(c4ccc(F)cc4)N(C)C)CC3)CC2)c(C)c1C (stereo not drawn) [Example 454] | 48 | 10
5 | CN(C)C(c1ccc(F)cc1)C1CCC(CCNC(=O)COC2CCN(S(=O)(=O)c3ccc(Cl)cc3Cl)C2)CC1 (stereo not drawn) [Example 456] | 50 | 48
6 | Cc1ccc(S(=O)(=O)N(C)CCOCC(=O)NCCC2CCC(C(c3ccc(F)cc3)N(C)C)CC2)cc1 (stereo not drawn) [Example 457] | 47 | 11
7 | COc1cc(C)c(S(=O)(=O)N(C)CCOCC(=O)NCC2CCC(C(c3ccc(F)cc3)N(C)C)CC2)c(C)c1 (stereo not drawn) [Example 458] | 48 | 104
8 | CN(C)C(c1ccc(Cl)cc1)C1CCC(CNC(=O)COCCN(C)S(=O)(=O)c2ccc(Cl)cc2Cl)CC1 (stereo not drawn) [Example 459] | 36 | 26
9 | COc1ccc(S(=O)(=O)N(C)CCOCC(=O)NCCC2CCC(C(c3ccc(Cl)cc3)N(C)C)CC2)cc1 (stereo not drawn) [Example 460] | 52 | 71
10 | COc1ccc(S(=O)(=O)N2CCCC2COCC(=O)NC2CCC(C(c3ccc(F)cc3)N(C)C)CC2)cc1 (stereo not drawn) [Example 461] | 43 | 20
11 | COc1ccc(S(=O)(=O)N2CCCCC2COCC(=O)NCCC2CCC(C(c3ccc(F)cc3)N(C)C)CC2)cc1OC (stereo not drawn) [Example 462] | 51 | −13
12 | CN(C)C(c1ccc(F)cc1)C1CCC(NC(=O)COC2CCN(S(=O)(=O)c3ccccc3)C2)CC1 (stereo not drawn) [Example 463] | 38 | 17
13 | CN(C)C(c1ccc(F)cc1)C1CCC(CCNC(=O)COC2CCN(S(=O)(=O)c3ccc(Cl)cc3)C2)CC1 (stereo not drawn) [Example 464] | 46 | −6
14 | CN(C)C(c1ccc(F)cc1)C1CCC(CCNC(=O)COC2CCN(S(=O)(=O)c3cccc(C(F)(F)F)c3)C2)CC1 (stereo not drawn) [Example 466] | 30 | 22
15 | COc1cc(C)c(S(=O)(=O)N2CCC(OCC(=O)NCCC3CCC(C(c4ccc(F)cc4)N(C)C)CC3)C2)c(C)c1C (stereo not drawn) [Example 467] | 40 | 47
16 | COc1cc(C)c(S(=O)(=O)N2CCCC(OCC(=O)NCCC3CCC(C(c4ccc(F)cc4)N(C)C)CC3)C2)c(C)c1C (stereo not drawn) [Example 468] | 53 | 33
17 | COc1ccc(S(=O)(=O)N2CCCCC2COCC(=O)NCC2CCC(C(CCc3ccccc3)N(C)C)CC2)cc1 (stereo not drawn) [Example 469] | 50 | 87
18 | CN(C)C(c1ccc(F)cc1)C1CCC(CCNC(=O)COCCC2CCN(S(=O)(=O)c3ccccc3)CC2)CC1 (stereo not drawn) [Example 470] | 35 | 23
19 | CN(C)C(c1ccc(Cl)cc1)C1CCC(CNC(=O)COC2CCN(S(=O)(=O)c3ccccc3)CC2)CC1 (stereo not drawn) [Example 471] | 35 | 15
20 | COc1cc(C)c(S(=O)(=O)N2CCC(OCC(=O)NCCC3CCC(C(c4ccc(Cl)cc4)N(C)C)CC3)CC2)c(C)c1C (stereo not drawn) [Example 472] | 44 | 26
21 | COc1cc(C)c(S(=O)(=O)N(CCOCC(=O)NCC2CCC(C(c3ccc(Cl)cc3)N(C)C)CC2)Cc2ccccc2)c(C)c1 (stereo not drawn) [Example 473] | 34 | −3

Row | SMILES | μ (binding on the μ opioid receptor, % inhibition) [1] [%] | B1R Ant. r [10 μM] % Inhibition [2] [%]
22 | COc1ccc(S(=O)(=O)N2CCCCC2COCC(=O)NCCC2CCC(C(c3ccc(Cl)cc3)N(C)C)CC2)c(OC)c1 (stereo not drawn) [Example 474] | 46 | 10
23 | Cc1cc(C)c(S(=O)(=O)N2CCC(OCC(=O)NCC3CCC(C(CCc4ccccc4)N(C)C)CC3)C2)c(C)c1 (stereo not drawn) [Example 475] | 48 | 40
24 | CN(C)C(c1cccc(F)c1)C1CCC(CNC(=O)COC2CCN(S(=O)(=O)c3ccccc3)CC2)CC1 (stereo not drawn) [Example 477] | 51 | 17
25 | CN(C)C(c1ccc(F)cc1)C1CCC(NC(=O)COCC2CCCN(S(=O)(=O)c3ccccc3)C2)CC1 (stereo not drawn) [Example 478] | 40 | 23
26 | CN(C)C(c1ccc(F)cc1)C1CCC(CCNC(=O)COCC2CCCN(S(=O)(=O)c3ccccc3)C2)CC1 (stereo not drawn) [Example 479] | 42 | 22
27 | COc1cc(C)c(S(=O)(=O)N2CCC(OCC(=O)NCCC3CCC(C(c4ccc(F)cc4)N(C)C)CC3)CC2)c(C)c1C (stereo not drawn) [Example 480] | 38 | 4
28 | COc1cc(C)c(S(=O)(=O)N2CCC(CCOCC(=O)NCC3CCC(C(c4ccc(F)cc4)N(C)C)CC3)CC2)c(C)c1C (stereo not drawn) [Example 481] | 38 | 49
29 | COc1ccc(S(=O)(=O)N(C)CCOCC(=O)NCCC2CCC(C(c3ccc(F)cc3)N(C)C)CC2)cc1OC (stereo not drawn) [Example 484] | 35 | 19
30 | COc1cc(C)c(S(=O)(=O)N2CCCC(OCC(=O)NCCC3CCC(C(c4ccc(Cl)cc4)N(C)C)CC3)C2)c(C)c1C (stereo not drawn) [Example 485] | 46 | 6
31 | CN(C)C(c1ccc(F)cc1)C1CCC(CCNC(=O)COCCN(C)S(=O)(=O)c2ccc(F)cc2)CC1 (stereo not drawn) [Example 487] | 37 | 9
32 | CN(C)C(c1ccc(F)cc1)C1CCC(CNC(=O)COC2CCCN(S(=O)(=O)c3ccccc3)C2)CC1 (stereo not drawn) [Example 488] | 40 | −6
33 | CN(C)C(c1ccc(F)cc1)C1CCC(CCNC(=O)COCCN(Cc2ccccc2)S(=O)(=O)c2ccccc2)CC1 (stereo not drawn) [Example 489] | 35 | 22
34 | Cc1cc(C)c(S(=O)(=O)N(C)CCOCC(=O)NC2CCC(C(c3ccc(F)cc3)N(C)C)CC2)c(C)c1 (stereo not drawn) [Example 490] | 42 | 12
35 | Cc1ccc(S(=O)(=O)N2CCC(OCC(=O)NCCC3CCC(C(c4ccc(F)cc4)N(C)C)CC3)C2)cc1 (stereo not drawn) [Example 491] | 34 | 16
36 | COc1cc(C)c(S(=O)(=O)N2CCC(OCC(=O)NCCC3CCC(C(c4ccc(Cl)cc4)N(C)C)CC3)C2)c(C)c1 (stereo not drawn) [Example 492] | 44 | 78
37 | CN(C)C(c1ccc(F)cc1)C1CCC(CCNC(=O)COCCN2CCN(S(=O)(=O)c3ccccc3)CC2)CC1 (stereo not drawn) [Example 493] | 34 | 4
38 | COc1cc(C)c(S(=O)(=O)N(CCOCC(=O)NCC2CCC(C(c3ccc(F)cc3)N(C)C)CC2)Cc2ccccc2)c(C)c1 (stereo not drawn) [Example 494] | 42 | 36
39 | CN(C)C(CCc1ccccc1)C1CCC(CNC(=O)COC2CCN(S(=O)(=O)c3ccc(Cl)cc3Cl)C2)CC1 (stereo not drawn) [Example 496] | 41 | 35
40 | COc1ccc(S(=O)(=O)N2CCC(OCC(=O)NCC3CCC(C(c4ccc(F)cc4)N(C)C)CC3)C2)cc1OC (stereo not drawn) [Example 497] | 37 | 17
41 | COc1cc(C)c(S(=O)(=O)N2CCC(OCC(=O)NCC3CCC(C(c4ccc(Cl)cc4)N(C)C)CC3)CC2)c(C)c1C (stereo not drawn) [Example 498] | 36 | 2
42 | COc1cc(C)c(S(=O)(=O)N2CCC(CCOCC(=O)NCC3CCC(C(c4ccc(Cl)cc4)N(C)C)CC3)CC2)c(C)c1C (stereo not drawn) [Example 499] | 37 | −10
